The conditions of series [1]: oral, 0.4 mg or 1.0 mg; 90 patients; cited from earlier work.
The conditions of series [2]: 0.5 mg/day oral daily for 4 weeks; 42 IBS patients; cited from earlier work.
For series [3] the following is noted: cited from earlier work.
For series [4] the following is noted: oral 0.002 mg/day with methadone; one patient; cited from earlier work.
The conditions of series [5]: 4.5 mg/day for 12 weeks; cited from earlier work.
The conditions of series [6]: in vivo, po; cited from earlier work.
For series [7] the following is noted: cited from earlier work. The source holds these as a separate data set.
Series [8] can be described thus: Blood levels of free naltrexone and free 6-beta-naltrexol following intranasal administration. The format is in vivo, human. The settings on record: for Naltrexone-free blood level / Blood Level 6-beta-Naltrexol-free: individual patients 1-8.
Series [9] in a line: Stability of Naltrexone HCl aqueous solution: potency/purity by USP <621> HPLC.

Several values for one entry are separate records, joined by “and”; a condition that tells them apart may be missing. Equal values may be shown once. Where a name gives a salt, the structure may show the parent alone.

For `O=C1CC[C@@]2(O)[C@H]3Cc4ccc(O)c5c4[C@@]2(CCN3CC2CC2)[C@H]1O5` [Naltrexone, naltrexone], the “analgesic effect compared with placebo” value in series [1] is recorded as “significant analgesic effects”. In series [2], the “patients with improved global assessment” value was 76%. The “solubility in water (in words)” value in [3] (in the form of a salt) is “freely soluble”. In addition, the pain relief entry in series [4] is given as “improved pain relief”. Besides, in [5], the “CDAI scores, quality of life indicators, remission rates, inflammatory markers in serum” value is given as “Statistically significant improvements”. The “reduction of fibromyalgia symptoms over placebo” value in series [6] was “greater than 30%”. Further, in series [7] (oral administration, significant first pass metabolism), the oral bioavailability entry is listed as “up to 40%”. Moreover, in series [7] (single oral dose), the “time to peak plasma concentration” value is 1 to 2 h. Also, the concentration at 15 min in [8] (both sexes, human, in vivo, 2 mg, average of 8 subjects, 15 min after intranasal administration, read-out: Naltrexone-free blood level, Avg.) came out at 3.52 ng/mL. The concentration at 30 min in [8] (both sexes, human, in vivo, 2 mg, average of 8 subjects, 30 min, read-out: Naltrexone-free blood level, Avg.) was 3.66 ng/mL. Also, the concentration at 60 min in [8] (both sexes, human, in vivo, 2 mg, average of 8 subjects, 60 min, read-out: Naltrexone-free blood level, Avg.) is 3.24 ng/mL. The concentration at 120 min in series [8] (both sexes, human, in vivo, 2 mg, average of 8 subjects, 120 min, read-out: Naltrexone-free blood level, Avg.) is 1.94 ng/mL. Also, the Naltrexone-free blood level in [8] (15 min after intranasal 1 mL of Example 1 composition (2 mg/mL)) is 5.2 ng/mL and 1.4 ng/mL and 4.7 ng/mL and 4.6 ng/mL (2×) and 1.6 ng/mL and 2.1 ng/mL and 4 ng/mL; in [8] (30 min after intranasal 1 mL of Example 1 composition), 5.1 ng/mL and 1.7 ng/mL and 4.7 ng/mL and 3.8 ng/mL and 2.3 ng/mL and 5.5 ng/mL and 2.8 ng/mL and 3.4 ng/mL; in series [8] (60 min after intranasal 1 mL of Example 1 composition) it was 4.6 ng/mL and 1.8 ng/mL (2×) and 4.5 ng/mL (2×) and 3.2 ng/mL and 2.6 ng/mL and 2.9 ng/mL; in [8] (120 min after intranasal 1 mL of Example 1 composition) it was 2.8 ng/mL and 1.1 ng/mL and 2.9 ng/mL and 2.1 ng/mL (2×) and 1.3 ng/mL and 1.4 ng/mL and 1.8 ng/mL.

For `O=C1CC[C@@]2(O)[C@H]3Cc4ccc(O)c5c4[C@@]2(CCN3CC2CC2)[C@H]1O5` [Naltrexone HCl, Naltrexone hydrochloride], the Potency/Purity turned out to be 99.89% in series [9] (Stability Test A, 2.00 mg/mL in sterile water, room temperature, ambient light, day 5); 104.12% in [9] (Stability Test A, day 14); 95.94% in [9] (Stability Test A, day 31); 107.00% in series [9] (Stability Test A, day 62); 107.09% in series [9] (Stability Test A, day 90); 102.04% in series [9] (Stability Test B, 2.00 mg/mL in sterile water, room temperature, ambient light, day 6). Further, the Potency/Purity in series [9] (Stability Test B, day 15) was 102.11%; in series [9] (Stability Test B, day 33) it was 101.05%; in series [9] (Stability Test B, day 61), 98.49%; in [9] (Stability Test B, day 90) it was 99.24%; in series [9] (Stability Test B, day 121) it was 98.70%; in [9] (Stability Test B, day 152) it was 98.56%. For the same compound, in series [9] (Stability Test B, day 180), the Potency/Purity amounted to 100.44%. For the same compound, in series [3], the solubility in water entry is listed as “about 100 mg/mL”.

`Oc1ccc2c3c1O[C@H]1[C@H](O)CC[C@@]4(O)[C@@H](C2)N(CC2CC2)CC[C@]314` [6-beta-Naltrexol, 6-beta-naltrexol]: the “Blood Level 6-beta-Naltrexol-free, Avg.” value is reported as 0.138 ng/mL in series [8] (average of 8 subjects, 15 min); 0.900 ng/mL in [8] (average of 8 subjects, 30 min); 1.588 ng/mL in series [8] (average of 8 subjects, 60 min); 2.438 ng/mL in series [8] (average of 8 subjects, 120 min). The “Blood Level 6-beta-Naltrexol-free” value in series [8] (15 min after intranasal 1 mL of Example 1 composition) is 0 ng/mL (7×) and 1.1 ng/mL; in series [8] (30 min), 0 ng/mL (3×) and 1 ng/mL (2×) and 1.5 ng/mL and 1.9 ng/mL and 1.8 ng/mL; in series [8] (60 min) it was 1.1 ng/mL and 1.9 ng/mL and 0 ng/mL (2×) and 1.2 ng/mL and 1.6 ng/mL and 2.9 ng/mL and 4 ng/mL; in series [8] (120 min) it was 2.1 ng/mL (2×) and 2.7 ng/mL and 2 ng/mL and 1.8 ng/mL and 1 ng/mL and 3.5 ng/mL and 4.3 ng/mL.
